4 compounds from patent EP0417840B1, “Antiviral tetrahydroimidazo [1,4]-benzodiazepines” (JANSSEN PHARMACEUTICA N.V., priority 1989, dated 1991) can be followed below.

One series in a line: in vitro. It counts as cell-based. The following applies: human, mt-4 cells. As for the experimental part:
(§1) A rapid, sensitive and automated assay procedure was used for the in-vitro evaluation of anti-HIV agents. An […] T4-cell line, MT-4, which was previously shown (Koyanagi et al., Int. J. Cancer, 36, 445-451, 1985) to be highly susceptible to and permissive for HIV infection, served as the target cell line. Inhibition of the HIV-induced cytopathic effect was used as the end point. The viability of both HIV- and mock-infected cells was assessed spectrophotometrically via the in-situ reduction of 3-(4,5-dimethylthiazol-2-yl)-2,5-diphenyltetrazolium bromide (MTT). The 50% cytotoxic dose (CD₅₀ in µg/ml) was defined as the concentration of compound that reduced the absorbance of the mock-infected control sample by 50%. The percent protection achieved by the compound in HIV-infected cells was calculated by the following formula: [formula] whereby (ODT)HIV is the optical density measured with a given concentration of the test compound in HIV-infected cells; (ODC)HIV is the optical density measured for the control untreated HIV-infected cells; (ODC)MOCK is the optical density measured for the control untreated mock-infected cells; all optical density values were determined at 540 nm. The dose achieving 50% protection according to the above formula was defined as the 50% effective dose (ED₅₀ in µg/ml). The ratio of CD₅₀ to ED₅₀ was defined as the selectivity index (SI).

The subject of a further series is HIV. As to the kind of experiment: Anti-HIV assay: inhibition of the HIV-induced cytopathic effect in MT-4 cells (MTT). It is filed as cell-based. The following applies: for EC50: Human immunodeficiency virus 1, MT4, dose achieving 50% protection of HIV-infected MT-4 cells, MTT, 540 nm, read-out: ED₅₀ (50% effective dose); for SI (selectivity index): ratio of CD₅₀ to ED₅₀. Here is the method:
as §1

Converted amounts (≈) assume the structure as drawn.

Compound `CCCN1CCn2c(=S)[nH]c3cccc(c32)C1C` (stereo not drawn) [Compound 2, 4,5,6,7-tetrahydro-7-methyl-6-propylimidazo[4,5,1-jk] [1,4]benzodiazepin-2(1H)-thione] showed a CC50 in “in vitro” of 129 µg/mL (≈ 494 µM). In the series on HIV, the EC50 is 0.5 µg/mL (≈ 1.91 µM) and the “SI (selectivity index)” value is on record as 258.

For `CC(C)=CCN1[C@H](C)Cn2c(=S)[nH]c3cccc(c32)[C@@H]1C` (relative stereo) [Compound 5, cis-4,5,6,7-tetrahydro-5,7-dimethyl-6-(3-methyl-2-butenyl)imidazo[4,5,1-jk][1,4]benzodiazepine-2(1H)thione], in the series “in vitro”, the midpoint of cytotoxicity, the CC50, lay at 23 µg/mL (≈ 76.3 µM). In the series with HIV, the EC50 was found to be 0.24 µg/mL (≈ 0.796 µM) and the “SI (selectivity index)” value is on record as 96.

With `CC(C)=CCN1CCn2c(=S)[nH]c3cccc(c32)C1C` (stereo not drawn) [Compound 3], the CC50 in “in vitro” was 177 µg/mL (≈ 616 µM). Besides, in the series with HIV, the EC50 turned out to be 0.1 µg/mL (≈ 0.348 µM) and the “SI (selectivity index)” value amounted to 1770.

Regarding `CC(C)=CCN1[C@H](C)Cn2c(=S)[nH]c3cccc(c32)[C@H]1C` (relative stereo) [Compound 6, trans-4,5,6,7-tetrahydro-5,7-dimethyl-6-(3-methyl-2-butenyl)imidazo[4,5,1-jk][1,4]benzodiazepine-2(1H)-thione], it took 23 µg/mL (≈ 76.3 µM) to reach half-maximal cytotoxicity in “in vitro” (CC50). In the series with HIV, the EC50 was determined as 0.0048 µg/mL (≈ 0.0159 µM) and the “SI (selectivity index)” value stood at 4838.
